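How tested: cells in 96-well plates exposed to compound for 48 hours at five concentrations. GI50 = concentration required for 50% inhibition of growth. TGI is the concentration that stops growth completely.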

The source of these data is PubChem BioAssay (NCI).

Common to all, as to assay: DTP human tumour cell line panel, 48 h
For assay [1], the system named is MDA-MB-231 breast.
Assay [2] deals with BT-549 breast.
The test system of assay [3] is NCI/ADR-RES ovarian.
Assay [4] relates to MDA-N.
The subject of assay [5] is M19-MEL melanoma.
In assay [6] the test system is DMS 114 small cell lung.
In assay [7] the test system is KM20L2 colon.

What is called TGI is the concentration at which net growth stops. On to `COc1ccc(CCN2CCc3c(C)c(C#N)c4nc5ccccc5n4c32)cc1OC`, for which the TGI was 86.1 µM in assay [1], 84.2 µM in assay [2], > 100 µM in assay [3] and 43.1 µM in assay [4].
With `CSc1ccc(C(=O)C(=O)c2ccc(SC)s2)s1`, the TGI in assay [1], in assay [3] and in assay [4] was > 10 µM each time.
One may read the GI50 as the concentration giving 50% growth inhibition. With `CC(=O)N(Cc1ccccc1)c1ccccc1I(=O)=O`, the GI50 in assay [1] is 50.4 µM; in assay [2], > 100 µM; in assay [3], 37.8 µM. The TGI in assay [1], in assay [2] and in assay [3] was > 100 µM throughout.
Regarding `Cc1cc(Cl)ccc1Nc1nc(C(F)(F)F)ccc1C(=O)N1CCN(c2cccc(Cl)c2)CC1`, the GI50 was 11 µM in assay [1], > 100 µM in assay [2] and > 100 µM in assay [3]. The total growth inhibition concentration (TGI) in assay [1], in assay [2] and in assay [3] was > 100 µM each time.
As to `C#CCN(Cc1ccc2nc(N)[nH]c(=O)c2c1)c1ccc(C(=O)NC(CCC(=O)O)C(=O)O)cc1` (stereo not drawn), the TGI in assay [1], in assay [2], in assay [3] and in assay [4] was > 100 µM in each case.
Consider `O=c1[nH]c2ccccc2n1-c1n[nH]c2ccccc12`, for which the GI50 is 22.9 µM in assay [1], 30.5 µM in assay [2] and 30.3 µM in assay [3]. The concentration for total growth inhibition (TGI) in assay [1], in assay [2] and in assay [3] was > 100 µM in each case.
On to `COc1cc(NC(=O)Nc2cnc(Nc3ccc(N4CCOCC4)cc3)nc2Oc2cccc(OC)c2)cc(OC)c1`, for which the GI50 in assay [1] is 1.41 µM; in assay [2] it was 1.49 µM; in assay [3], 4.04 µM. Besides, the TGI in assay [1] was 4.7 µM; in assay [2] it was 5.74 µM; in assay [3], > 50 µM.
Consider `CCCCCCCCCCCCOP(N)(=O)OCCCCCCCCCCCC`, for which the TGI in assay [5] and in assay [6] was > 100 µM each time.
As for `COC1(OC)c2no[n+]([O-])c2C(OC)(OC)c2c1no[n+]2[O-]`, the values for the TGI in assay [1], in assay [3] and in assay [4] were 32.9 µM, 62.8 µM and 62.8 µM, respectively.
Regarding `CC(=O)Oc1ccc(/C=N/NC(N)=S)nc1`, the GI50 in assay [1] is 11.2 µM; in assay [2], 3.4 µM; in assay [3] it was 3.48 µM. Besides, the total growth inhibition concentration (TGI) was > 100 µM in assay [1], 68.9 µM in assay [2] and > 100 µM in assay [3].
For the compound `N#CC1C=Cc2ccccc2N1C(=O)Oc1ccccc1` (stereo not drawn), the total growth inhibition concentration (TGI) in assay [1], in assay [2], in assay [3] and in assay [4] was > 100 µM in each case.
Consider `Cc1c(C(=O)CSc2nc3ccccc3[nH]2)c(=O)n(-c2ccccc2)n1C`, for which the concentration for total growth inhibition (TGI) in assay [5] and in assay [7] was > 100 µM throughout.
As for `CCC1CNC(=O)CC1CC(=O)OC` (stereo not drawn), the TGI in assay [7] and in assay [6] was > 100 µM in each case.
On to `CC1COCC(C)N1C1=C(Cl)C(=O)c2ccccc2C1=O` (stereo not drawn), for which the GI50 in assay [1] was 2.46 µM; in assay [2], 11.7 µM; in assay [3], 3.36 µM. In addition, the values for the TGI in assay [1], in assay [2] and in assay [3] were 11 µM, 24 µM and 14.1 µM, respectively.
As for `CC1=C(C(=O)Nc2ccc(Cl)c(Cl)c2)C(c2ccccc2O)NC(=O)N1` (stereo not drawn), the GI50 in assay [1] is 28 µM; in assay [2] it was 15.3 µM; in assay [3] it was > 50 µM. Besides, the total growth inhibition concentration (TGI) in assay [1], in assay [2] and in assay [3] was > 50 µM in each case.
Consider `CCOC(=O)C(NC(=O)c1[nH]cnc1/N=N/N(C)C)C(C)C` (stereo not drawn), for which the TGI in assay [5] and in assay [6] was > 100 µM each time.
Turning to `COc1cccc(/C=C/C(=O)c2cc3c(N)c(C(=O)Nc4cccc5ccccc45)sc3nc2C)c1`, the values for the GI50 in assay [1], in assay [2] and in assay [3] were 1.22 µM, 1.2 µM and 1.33 µM, respectively. Moreover, the TGI in assay [1] amounted to 3.26 µM; in assay [2], 3.88 µM; in assay [3], 5.75 µM.
Take `C=[CH][Sn]([CH]=C)([O]c1cccc2cccnc12)[O]c1cccc2cccnc12`: the GI50 in assay [1] is 11.9 µM; in assay [7] it was 2.26 µM; in assay [2], 2.78 µM; in assay [3] it was 9.94 µM. Further, the TGI is 36.9 µM in assay [1], 4.99 µM in assay [7], 31.5 µM in assay [2] and > 100 µM in assay [3].
In the case of `COC(=O)/C(=N\NC(N)=S)C(C#N)c1ccccc1` (stereo not drawn), the concentration for total growth inhibition (TGI) in assay [5], in assay [7] and in assay [6] was > 100 µM in each case.
For `CC1CCC2N(C1)CC1C3(O)CC45OC6(O)C(O)CCC4(C)C6CCC5C3(O)CC(O)C1(O)C2(C)O` (stereo not drawn), the concentration for total growth inhibition (TGI) in assay [1], in assay [2], in assay [3] and in assay [4] was > 100 µM each time.
Consider `COc1cccc(C2NC(=S)NC(C)=C2C(=O)Nc2ccc(Cl)c(Cl)c2)c1` (stereo not drawn), for which the GI50 was 9.41 µM in assay [1], 7.15 µM in assay [2] and > 50 µM in assay [3]. Also, the TGI was 19.6 µM in assay [1], 16.8 µM in assay [2] and > 50 µM in assay [3].
Take `O=C(NCCCCCCCNC(=O)OCc1ccc2c(Cl)cc(Cl)c(O)c2n1)OCc1ccc2c(Cl)cc(Cl)c(O)c2n1`: the values for the GI50 in assay [1], in assay [2] and in assay [3] were 1.13 µM, 0.359 µM and 0.338 µM, respectively. Also, the concentration for total growth inhibition (TGI) amounted to 2.45 µM in assay [1], 1.42 µM in assay [2] and 3.59 µM in assay [3].
`CO[C@@]12[C@@H]3NC3CN1C1=C(C(=O)C(N)=C(C)C1=O)[C@@H]2COC(N)=O` (stereo partly drawn): the GI50 in assay [1] was 8.95 µM; in assay [2], 1.3 µM; in assay [3] it was 3.45 µM. Also, the TGI in assay [1] was > 54.8 µM; in assay [2] it was 6.74 µM; in assay [3] it was > 90.5 µM.
Consider `O=c1c2ccccc2oc2ccc(OCCCCCCN3CCCCCC3)cc12`, for which the GI50 in assay [1] was 4.19 µM; in assay [2], 1.7 µM; in assay [3] it was 3.73 µM. In addition, the concentration for total growth inhibition (TGI) in assay [1] amounted to 13 µM; in assay [2] it was 5.3 µM; in assay [3], 24.6 µM.
